Experimental data taken from US20230047313A1, “TREATING HEART DISEASE IN MUSCULAR DYSTROPHY PATIENTS” (Children`s Medical Center Corporation, priority 2019, published 2023).
Entries after “also recorded” stand apart in the source; their conditions may differ.

Key:
Type in all cases: in vivo, mouse
CIP-KO/mdx dko mice = assay: Oral gavage of Nox4 inhibitor in CIP-KO/mdx dko mice, cardiac function by echocardiography
Text: (§1) Nox4 inhibitor GKT 137831 was purchased from MilliporeSigma and dissolved in corn oil. Male mutation mice for both CIP and dystrophin genes (CIP-KO/mdx dko) were divided into four groups: • 1) group young control (3-month old mouse with corn oil); • 2) group young inhibitor (3-month old mouse with nox4 inhibitor); • 3) group old control (5-month old mouse with corn oil); • 4) group Old inhibitor (5-month old mouse with nox4 inhibitor) Male mutation mice for utrophin and dystrophin (c) were divided into two groups: • 1) group C: control (3-month old mouse with corn oil); • 2) group I: inhibitor (3-month old mouse with nox4 inhibitor); For all the animals in the inhibitor treatment group, the Nox4 Inhibitor (GKT137831 (SIGMA) diluted 1:100 in corn oil) was applied at the dosage of 60 mg/kg/day daily; control group was treated with corn oil only. Cardiac function was monitored using echocardiography before (pre-) and after Nox4 Inhibitor treatment at indicated times (weeks or months) and was presented as EF (ejection fraction) or FS % (fractional shortening), respectively. Utrn/mdx dko mice were sacrificed after final echocardiography measurement after 2 months. Histology was performed in the heart tissues and the expression of cardiac genes and fibronectin, a molecular marker for fibrosis, measured using real-time qPCR.

Utrn/mdx dko mice [1] = assay: Oral gavage of Nox4 inhibitor in Utrn/mdx dko mice, cardiac function by echocardiography; conditions: 60 mg/kg/day daily, 2, 4 and 8 weeks, both younger and older mice
Description: Nox4 inhibitor GKT 137831 was purchased from MilliporeSigma and dissolved in corn oil. […] Cardiac function was monitored using echocardiography before (pre-) and after Nox4 Inhibitor treatment at indicated times (weeks or months) and was presented as EF (ejection fraction) or FS % (fractional shortening), respectively. Utrn/mdx dko mice were sacrificed after final echocardiography measurement after 2 months. Histology was performed in the heart tissues and the expression of cardiac genes and fibronectin, a molecular marker for fibrosis, measured using real-time qPCR.

Utrn/mdx dko mice [2] = assay: Histology (Fast green/Sirius red staining) of heart sections of Utrn/mdx dko mice after Nox4 inhibitor treatment; conditions: 8 weeks after treatment, 60 mg/kg/day
Text: as §1, with “Male” for “Nox4 inhibitor GKT 137831 was purchased from MilliporeSigma and dissolved in corn oil. Male”

Utrn/mdx dko mice [3] = assay: Quantitative real time PCR of fibronectin in hearts of Utrn/mdx dko mice after Nox4 inhibitor treatment; conditions: 8 weeks after treatment, 60 mg/kg/day
Text: as §1, with “Male” for “Nox4 inhibitor GKT 137831 was purchased from MilliporeSigma and dissolved in corn oil. Male”

## CN(C)c1cccc(-c2c3c(=O)n(-c4ccccc4Cl)[nH]c3cc(=O)n2C)c1 [GKT137831]
CIP-KO/mdx dko mice; CIP-KO:mdx mice, 60 mg/kg/day daily, both younger (start 3 months old) and older (start 5 months old) mice
  left ventricle dilation (LVID), echocardiography: reduced the left ventricle dilation (LVID)
CIP-KO/mdx dko mice; CIP-KO:mdx mice, 60 mg/kg/day daily, both younger (start 3 months old) and older (start 5 months old) mice, 60 mg/kg/day
  cardiac function (Ejection Fraction, EF), echocardiography: preserved cardiac function; also recorded: improves cardiac function
CIP-KO/mdx dko mice; mdx/CIP-KO mice as worded in the summary sentence, 60 mg/kg/day daily
  cardiac fibrosis: reduces cardiac fibrosis
CIP-KO/mdx dko mice; mdx/CIP-KO mice, 60 mg/kg/day daily
  dystrophic cardiomyopathy: potently ameliorated dystrophic cardiomyopathy
CIP-KO/mdx dko mice; mdx/CIP-KO mice, 60 mg/kg/day daily oral gavage, 60 mg/kg/day
  development of heart failure: preventing the development of heart failure; also recorded: potently prevents the development of heart failure
Utrn/mdx dko mice [1]
  cardiac function (Ejection Fraction, EF; Fractional Shortening, FS %), echocardiography: preserved cardiac function
  left ventricle dilation (LVID), echocardiography: reduced the left ventricle dilation (LVID)
Utrn/mdx dko mice [2]
  formation of cardiac fibrosis and scars, Fast green/Sirius red staining: decreased the formation of cardiac fibrosis and the formation of scars
  size of the left ventricle dimension, histological analysis: reduced the size of the left ventricle dimension
Utrn/mdx dko mice [3]
  fibronectin expression in the hearts, qPCR: reduced fibronectin expression
